Measured values as given in patent US8906879B2, “Combination for the treatment of cancer” (GlaxoSmithKline Intellectual Property (No. 2) Limited, priority 2010, dated 2014).

Columns and labels:
HuP-T4 = assay: Cell growth inhibition assay (Cell Titer Glo), HuP-T4; assay type: cell-based; conditions: Homo sapiens, 72 h; single agent; HuP-T4, KRAS G12V; 3 days
Description: (§1) BxPC-3, HuP-T4, PL45, Panc-02-03, Mia-PaCa, HPAF-II, SW1990, Panc-08-13, Capan-1, AsPC-1, Capan-2, HPAC, YAPC and Panc-1 lines were used in the study. BxPC-3, Mia-PaCa, HPAF-11, SW1990, AsPC-1, Capan-2 and YAPC were cultured in RPMI 1640 medium (cat#72400 047, Invitrogen) containing 10% fetal bovine serum (FBS) (cat#SH30071.03, Hyclone). Capan-1 and HuP-T4 were cultured in RPMI 1640 medium containing 20% FBS. PL45 and PANC-1 lines were cultured in DMEM (ATCC 30-2002) containing 10% FBS. Panc-02-03 and Panc-08-13 were cultured in RPMI 1640 medium containing 15% fetal bovine serum and ITSX (51500-056, Gibco). HPAC was cultured in RPMI 1640 medium containing 5% FBS, ITSX, 40 ng/ml Hydrocortism, and 10 ng/ml EGF (85570C-1MG, SAFC Biosciences).
(§2) All cells were cultured for a minimum of 72 hours prior to cell plating. […] ATP levels were determined by adding Cell Titer Glo® (Promega) according to the manufacturer's protocol. Briefly, Cell Titer Glo® was added to each plate, incubated for 30 minutes and then the luminescent signal was read on the SpectraMax L plate reader with a 0.5 sec integration time.
(§3) Inhibition of cell growth was estimated after treatment with compound or combination of compounds for three days and the signal was compared to cells treated with vehicle (DMSO). Cell growth was calculated relative to vehicle (DMSO) treated control wells. […]

YAPC = assay: Cell growth inhibition assay (Cell Titer Glo), YAPC; assay type: cell-based; conditions: Homo sapiens, 72 h, single agent, KRAS G12V, 3 days
Description: as §1, §2, §3

PL45 = assay: Cell growth inhibition assay (Cell Titer Glo), PL45; assay type: cell-based; conditions: Homo sapiens, 72 h; single agent; PL45, KRAS G12D; 3 days
Description: as §1, §2, §3

AsPC-1 = assay: Cell growth inhibition assay (Cell Titer Glo), AsPC-1; assay type: cell-based; conditions: Homo sapiens, ASPC1, 72 h; single agent; AsPC-1, KRAS G12D; 3 days
Description: as §1, §2, §3

Capan-1 = assay: Cell growth inhibition assay (Cell Titer Glo), Capan-1; assay type: cell-based; conditions: Homo sapiens, 72 h; single agent; Capan-1, KRAS G12V; 3 days
Description: as §1, §2, §3

HPAF-II = assay: Cell growth inhibition assay (Cell Titer Glo), HPAF-II; assay type: cell-based; conditions: Homo sapiens, 72 h, single agent, KRAS G12D, 3 days
Description: as §1, §2, §3

Panc-1 = assay: Cell growth inhibition assay (Cell Titer Glo), Panc-1; assay type: cell-based, human; conditions: for IC50: Homo sapiens, 72 h, single agent, Panc-1, KRAS G12D, 3 days; for sensitivity of cell growth (in words): KRAS mutant Panc-1 cells
Description: as §1
(§4) All cells were cultured for a minimum of 72 hours prior to cell plating. Cells were assayed in a 96-well tissue culture plate (NUNC 136102) of RPMI medium containing 10% FBS for all cells at 1,000 cells per well. Approximately 24 hours after plating, cells were exposed to ten, three-fold serial dilutions of compound or the combination of the two agents at a constant molar to molar ratio of 1:1 Compound A to Compound B in RPMI media containing 10% FBS. Cells were incubated in the presence of compounds for 3 days. ATP levels were determined by adding Cell Titer Glo® (Promega) according to the manufacturer's protocol. Briefly, Cell Titer Glo® was added to each plate, incubated for 30 minutes and then the luminescent signal was read on the SpectraMax L plate reader with a 0.5 sec integration time.
as §3
(§5) Combination effects on potency were evaluated using Combination Index (CI) which was calculated with the back-interpolated IC50 values and the mutually non-exclusive equation derived by Chou and Talalay: CI=Da/IC50(a)+Db/IC50(b)+(Da×Db)/(IC50(a)×IC50(b)) […]
(§6) The combination effects on the response scale were quantified by Excess Over Highest Single Agent (EOHSA) based on the concept of nonlinear blending as described in detail by Liu et al, 2011. […] For single agent and combination treatments, cells were exposed to compounds at a fixed-dose-ratio, and dose response curves were fit to the experimental data and analyzed using regression models. At specified total dose levels of IC50 along the dose response curve, the dose combination (corresponding to IC50) was determined for making EOHSA statistical inferences. […]

Panc-08-13 = assay: Cell growth inhibition assay (Cell Titer Glo), Panc-08-13; assay type: cell-based; conditions: Homo sapiens, 72 h; single agent; Panc-08-13, KRAS G12D; 3 days
Description: as §1, §2, §3

SW1990 = assay: Cell growth inhibition assay (Cell Titer Glo), SW1990; assay type: cell-based; conditions: Homo sapiens, 72 h; single agent; SW1990, KRAS G12D; 3 days
Description: as §1, §2, §3

Mia-PaCa = assay: Cell growth inhibition assay (Cell Titer Glo), Mia-PaCa; assay type: cell-based; conditions: Homo sapiens, MIA PaCa-2, 72 h, single agent, KRAS G12C, 3 days
Description: as §1, §2, §3

Capan-2 = assay: Cell growth inhibition assay (Cell Titer Glo), Capan-2; assay type: cell-based; conditions: Homo sapiens, 72 h; single agent; Capan-2, KRAS G12V; 3 days
Description: as §1, §2, §3

BxPC-3 = assay: Cell growth inhibition assay (Cell Titer Glo), BxPC-3; assay type: cell-based; conditions: Homo sapiens, 72 h; single agent; BxPC-3, KRAS WT; 3 days
Description: as §1, §2, §3

[1] = system: KRAS mutant tumor lines, HuP-T4, PL45, Panc-02-03 and Mia-PaCa; assay: Cell growth inhibition assay, four KRAS mutant lines; assay type: cell-based; conditions: Homo sapiens; single agent; range over HuP-T4, PL45, Panc-02-03 and Mia-PaCa
Description: as §1, §4, §3, §5, §6

[2] = system: KRAS mutant lines HPAF-11, SW1990, Panc-08-13 and Capan-1; assay: as above; assay type: cell-based; conditions: Homo sapiens; single agent; over HPAF-11, SW1990, Panc-08-13 and Capan-1
Description: as §1, §4, §3, §5, §6

Panc-02-03 = assay: Cell growth inhibition assay (Cell Titer Glo), Panc-02-03; assay type: cell-based; conditions: Homo sapiens, Panc 02.03, 72 h; single agent; Panc-02-03, KRAS G12D; 3 days
Description: as §1, §2, §3

HPAC = assay: Cell growth inhibition assay (Cell Titer Glo), HPAC; assay type: cell-based; conditions: Homo sapiens, 72 h, single agent, KRAS G12D, 3 days
Description: as §1, §2, §3

| Structure (SMILES) | IC50 (HuP-T4) | IC50 (YAPC) | IC50 (PL45) | IC50 (AsPC-1) | IC50 (Capan-1) | IC50 (HPAF-II) | IC50 (Panc-1) | sensitivity of cell growth (in words) (Panc-1) | IC50 (Panc-08-13) | IC50 (SW1990) | IC50 (Mia-PaCa) | IC50 (Capan-2) | IC50 (BxPC-3) | IC50 [1] | IC50 [2] | IC50 (Panc-02-03) | IC50 (HPAC) |
| --- | --- | --- | --- | --- | --- | --- | --- | --- | --- | --- | --- | --- | --- | --- | --- | --- | --- |
| CC(=O)Nc1cccc(-n2c(=O)n(C3CC3)c(=O)c3c(Nc4ccc(I)cc4F)n(C)c(=O)c(C)c32)c1 [Compound A, N-{3-[3-cyclopropyl-5-(2-fluoro-4-iodo-phenylamino)-6,8-dimethyl-2,4,7-trioxo-3,4,6,7-tetrahydro-2H-pyrido[4,3-d]pyrimidin-1-yl]phenyl}acetamide] | 1 ± 1 nM | > 1000 nM | 15 ± 4 nM | 5 nM | 193 ± 78 nM | 59 ± 53 nM | > 1000 nM | resistant | 67 ± 14 nM | 62 ± 43 nM | 59 ± 28 nM | 10 ± 1 nM | 14 nM | 1 to 59 nM | 59 to 193 nM | 32 ± 13 nM | 21 ± 6 nM |
| Nc1ccn([C@@H]2O[C@H](CO)[C@@H](O)C2(F)F)c(=O)n1 [Compound B, 4-amino-1-(2-deoxy-2,2-difluoro-β-D-erythro-pentofuranosyl)pyrimidin-2(1H)-on 2′,2′-difluoro-2′-deoxycytidine] | 7 ± 5 nM | 12 ± 8 nM | 13 ± 2 nM | > 1000 nM | > 1000 nM | > 1000 nM | > 1000 nM | resistant | > 1000 nM | ≥ 1000 nM | 21 ± 1 nM | > 1000 nM | 8 nM | 7 to 88 nM | > 1000 nM | 88 ± 17 nM | > 1000 nM |
